Read-outs that look alike come from different tables or passages of the source.
What was measured:
[1] = test system: A549 lung cancer cells; assay: MTT cell viability, 72 h, dark or 458 nm irradiation; assay type: cell-based, human; settings: for GI50: 72 h, MTT; for PI A549: GI50 non-irradiated / GI50 irradiated; for SI vs MC3T3, A549 Blue / SI vs NIH, A549 Blue: blue light; for SI vs MC3T3, A549 Blue / SI vs MC3T3, A549 Dark: GI50 MC3T3 / GI50 A549; for SI vs NIH, A549 Blue / SI vs NIH, A549 Dark: GI50 NIH-3T3 / GI50 A549
Procedure: (§1) For all biology experiments, the compounds were solubilized in DMSO to reach a final fixed concentration equal to 0.1% v/v to avoid cytotoxicity caused by DMSO [89]. The results are normalized to controls (0.1% v/v DMSO). Depending on the cell type, approximatively 1000 to 10,000 cells/cm^2 were seeded in 48-well plates for MTT, ATP and GSH assays and 60 mm Petri dishes for Western blots. Cells were allowed to attach overnight and then incubated for 4 h with the different complexes (in the dark), then irradiated for 10 min, followed by an incubation in the dark up to 72 h.
(§2) Irradiation was conducted using an in-house device: a series of blue light LEDs selected according to the absorption spectra of the compounds at a 458 nm wavelength with an emitted power of 9.6 watts. The absorbed energy, or irradiance, was measured at 458 nm with a Thorlabs Optical Power Meter PM100A at 5 and 10 cm distance between the cell layer and the light source and expressed as mW/cm^2.
(§3) A tetrazolium-based MTT reagent (3-(4,5-dimethylthiazol-2-yl)-2,5-diphenyltetrazolium bromide) was used to determine cell viability, as previously described. After 72 h of treatment at 37 °C and 5% CO2, cells were incubated with 25 μL MTT solution (5 mg/mL; Sigma-Aldrich) for 4 h. After solubilization with 500 μL of lysis buffer (DMSO), formazan was quantified by spectrophotometry with a microplate reader at 570 nm absorbance (ClarioSTAR, BMG LabTech, Champigny-sur-Marne, France). GI50 values corresponding to the concentration that caused 50% inhibition of cell proliferation were calculated from dose–response curves obtained by nonlinear regression analysis. All results were calculated from data obtained in at least three independent experiments.

[2] = test system: T24 bladder cancer cells; assay: as above; assay type: cell-based, human; settings: for GI50: 72 h, MTT; for PI T24: GI50 non-irradiated / GI50 irradiated; for SI vs MC3T3, T24 Blue / SI vs NIH, T24 Blue: blue light; for SI vs MC3T3, T24 Blue / SI vs MC3T3, T24 Dark: GI50 MC3T3 / GI50 T24; for SI vs NIH, T24 Blue / SI vs NIH, T24 Dark: GI50 NIH-3T3 / GI50 T24
Procedure: as §1, §2, §3

[3] = Photophysical measurements (emission, quantum yield, lifetime) in CH2Cl2; assay type: physicochemical; settings: for τ1 excited-state lifetime: CH2Cl2; for ΦPL emission quantum yield: CH2Cl2, 298 K, references POPOP and quinine sulfate
From the text: All complexes have been photophysically investigated at standard pressure in CH2Cl2 at 298 K. The absorption spectra of complexes 4a to 4g in CH2Cl2 at 298 K are shown in Figure 7. The strong absorption bands below 300 nm correspond to spin-allowed ^1π→π* electronic ligand-centered (LC) transitions. The structureless bands at 300–360 nm are attributed to ppy-to-ppy ^1π→π* […] charge transfer (LLCT) and Ir-to-ppy metal-to-ligand charge transfer (MLCT) transitions. The lowest-lying bands in the visible region can be assigned to both singlet and triplet MLCT transitions. No significant difference in the absorption spectra of complexes 4a to 4g can be found in the CH2Cl2 solution.
The luminescence spectra of complexes 4a to 4f in CH2Cl2 at 298 K are shown in Figure 8 and their photophysical data are summarized in Table 1.
The relative emission quantum yields (ΦPL) of these complexes in CH2Cl2 at room temperature were measured by using POPOP and quinine sulfate in 1 N H2SO4 as standard references (ΦPL = 97% and ΦPL = 54%, respectively). […] In addition, the excited-state lifetimes of complexes 4a to 4d are in the range of 166.4–190.7 ns, indicating the phosphorescence nature of the emissions.
UV/Vis absorption spectra were recorded at RT on solutions contained in quartz cuvettes (optical pathlength 1 cm, Hellma® (HELLMA, Müllheim, Germany)) with a PerkinElmer® (PerkinElmer, Waltham, MA, USA) UV/VIS/NIR spectrophotometer Lambda 950 and a PerkinElmer® detector UV/VIS/NIR Accessory 2D Detector Module.
Fluorescence and phosphorescence emission spectra were obtained with a HORIBA JOBIN YVON (Bensheim, Germany) fluromax-4 and spectrofluorometer.
Luminescence quantum yields were measured according to the method of Demas and Crosby, on solution samples at RT. The quantum yield is defined as: ΦS=ΦR*As/Ar* ηs/ηr^2^2 where ΦS is the quantum yield of the sample, ΦR is the known quantum yield of the reference standard at the area subtended by the emission band (on a wavelength scale) and η is the refractive index of the solvent used for the preparation of the solution. As (related to the sample) and Ar (related to the reference) must be excitation wavelength. Different standards were selected depending on the spectral region of the interest: POPOP in hexane (Φ = 97%) and QUININNE in water (Φ = 54%).
Fluorescence lifetime measurements were performed by an Edinburgh FLS920 spectrofluorometer equipped with a TCC900 card for data acquisition in time-correlated single-photon counting experiments (0.5 ns time resolution) with a D2 lamp and an LDH-P-C-405 pulsed diode laser. The estimated experimental error was 2 nm on the band maximum (5% on the lifetime, 10% on the fluorescence quantum yield).

[4] = test system: panel of five cancer cell lines (T24, PC-3, MCF7, A549, HeLa); assay: MTT cell viability, 72 h, pooled over the cancer cell panel; assay type: cell-based, human; settings: for Average SI vs MC3T3, Blue light: GI50 MC3T3 / GI50 of all irradiated cancer cell lines; for Average SI vs NIH, Blue light: GI50 NIH-3T3 / GI50 of all irradiated cancer cell lines
Procedure: as §1, §2, §3

[5] = Octanol–water partition coefficient, shake-flask method; assay type: physicochemical; settings: n-octanol/water, UV absorbance 260 nm
Procedure: Lipophilicities of all complexes have been measured by the classical shake-flask method, using UV absorption. The Log p values range from -0.063 to 0.861 in increasing order –0.063 (4a), 0.035 (4d), 0.519 (4f), 0.581 (4c), 0.842 (4b), 0.847 (4e) and 0.861 (4g).
The octanol–water partition coefficients (P) of 4a to 4g were determined using a shake-flask method. Water (100 mL, distilled after milli-Q purification) and n-octanol (100 mL, Sigma-Aldrich, St. Louis, MO, USA, ACS spectrophotometric grade, ≥99%) were shaken together for 24 h to allow saturation of both phases. Stock solutions of the […] compounds (50 μM) were prepared in the aqueous phase and aliquots (1 mL) of each of these stock solutions were then added to an equal volume of the n-octanol phase. The resultant biphasic solutions were mixed for 1 h and then centrifuged (3000× g, 5 min) (Eppendorf Centrifuges 5415R and 5804R) to separate the phases. The concentrations of the complexes in the organic and aqueous phases were then determined using UV absorbance spectroscopy (260 nm). Log P was defined as the logarithm of the ratio of the concentrations of the studied complex in the organic and aqueous phases (Log P = Log {[Ir(org)]/[Ir(aq)]}; values reported are the means of at least two separate determinations).

[6] = 458 nm irradiation 10 min, read-out: GI50 A549 Blue
[7] = 458 nm irradiation 10 min, read-out: GI50 T24 Blue

| Compound | GI50 [1, 6] [nM] | PI A549 [1] | SI vs MC3T3, A549 Blue [1] | SI vs NIH, A549 Blue [1] | GI50 ([1]; dark, read-out: GI50 A549 Dark) [nM] | SI vs MC3T3, A549 Dark ([1]; dark) | SI vs NIH, A549 Dark ([1]; dark) | GI50 [2, 7] [nM] | PI T24 [2] | SI vs MC3T3, T24 Blue [2] | SI vs NIH, T24 Blue [2] | GI50 ([2]; dark, read-out: GI50 T24 Dark) [nM] | SI vs MC3T3, T24 Dark ([2]; dark) | SI vs NIH, T24 Dark ([2]; dark) | τ1 excited-state lifetime [3] [ns] | ΦPL emission quantum yield [3] [%] | Average SI vs MC3T3, Blue light [4] | Average SI vs NIH, Blue light [4] | Log P [5] |
| --- | --- | --- | --- | --- | --- | --- | --- | --- | --- | --- | --- | --- | --- | --- | --- | --- | --- | --- | --- |
| CC(C)C[n+]1ccn2[c]1[Ir-3]13([c]4ccccc4-c4cccc[n+]41)([c]1ccccc1-c1cccc[n+]13)[c]1n(cc[n+]1CC(C)C)C2.F[P-](F)(F)(F)(F)F [Complex 4b] | 84 | 4.2 | 8.4 | 18.1 | 354 | 2.8 | 5.5 | 90 | 2.8 | 7.7 | 16.7 | 259 | 3.8 | 7.5 | 166 | 1.6 | 8.3 | 18 | 0.842 |
| F[P-](F)(F)(F)(F)F.c1ccc(C[n+]2ccn3[c]2[Ir-3]24([c]5ccccc5-c5cccc[n+]52)([c]2ccccc2-c2cccc[n+]24)[c]2n(cc[n+]2Cc2ccccc2)C3)cc1 [Complex 4c] | 171 | 2.4 | 7.8 | 15.6 | 407 | 2.9 | 6.7 | 91 | 3.9 | 14.6 | 29.3 | 358 | 3.2 | 7.6 | 180 | 1.6 | 12.1 | 24.3 | 0.581 |
| CC(C)[n+]1ccn2[c]1[Ir-3]13([c]4ccccc4-c4cccc[n+]41)([c]1ccccc1-c1cccc[n+]13)[c]1n(cc[n+]1C(C)C)C2.F[P-](F)(F)(F)(F)F [Complex 4a] | 107 | 3.3 | 16.3 | 26.1 | 355 | 6.9 | 10.3 | 82 | 3.5 | 21.2 | 34.0 | 288 | 8.5 | 12.7 | 191 | 1.2 |  |  | –0.063 |
| CSc1ccc(-[n+]2ccn3[c]2[Ir-3]24([c]5ccccc5-c5cccc[n+]52)([c]2ccccc2-c2cccc[n+]24)[c]2n(cc[n+]2-c2ccc(SC)cc2)C3)cc1.F[P-](F)(F)(F)(F)F [Complex 4d] | 617 | 2.4 | 2.9 | 4.5 | 1510 | 1.4 | 1.5 | 165 | 3.0 | 10.9 | 16.8 | 501 | 4.2 | 4.7 | 167 | 1.1 | 8.6 | 13.2 | 0.035 |
